# Measurements from PubChem BioAssay AID1259407 (Chemical Carcinogenesis Research Information System (CCRIS), 2018).
# Activity calls are given as the source filed them. The rule behind the calls is not given here.
# System: CCRIS mutagenicity, Ames/micronucleus/aberration tests
# Test: CCRIS mutagenicity studies
# [1] = Test System: AMES SALMONELLA TYPHIMURIUM, Strain/Indicator: TA98, Metabolic Activation: NONE, Method: PREINCUBATION
# [2] = Test System: AMES SALMONELLA TYPHIMURIUM, Strain/Indicator: TA100, Metabolic Activation: NONE, Method: PREINCUBATION
compound,measurement,setting,value
C1=C\CC/C=C\CC/1.C1=C\CC/C=C\CC/1.[Ni],mutagenic call,"Test System: AMES SALMONELLA TYPHIMURIUM, Strain/Indicator: TA97, Metabolic Activation: HAMSTER, LIVER, S-9, AROCLOR 1254 (10%), Method: PREINCUBATION",inactive; negative
same,mutagenic call,"Test System: AMES SALMONELLA TYPHIMURIUM, Strain/Indicator: TA97, Metabolic Activation: HAMSTER, LIVER, S-9, AROCLOR 1254 (30%), Method: PREINCUBATION",inactive; negative
same,mutagenic call,"Test System: AMES SALMONELLA TYPHIMURIUM, Strain/Indicator: TA97, Metabolic Activation: NONE, Method: PREINCUBATION",inactive; negative
same,mutagenic call,"Test System: AMES SALMONELLA TYPHIMURIUM, Strain/Indicator: TA97, Metabolic Activation: RAT, LIVER, S-9, AROCLOR 1254 (10%), Method: PREINCUBATION",inactive; negative
same,mutagenic call,"Test System: AMES SALMONELLA TYPHIMURIUM, Strain/Indicator: TA97, Metabolic Activation: RAT, LIVER, S-9, AROCLOR 1254 (30%), Method: PREINCUBATION",inactive; negative
same,mutagenic call,"Test System: AMES SALMONELLA TYPHIMURIUM, Strain/Indicator: TA98, Metabolic Activation: HAMSTER, LIVER, S-9, AROCLOR 1254 (10%), Method: PREINCUBATION",inactive; negative
same,mutagenic call,[1],inactive; negative
same,mutagenic call,"Test System: AMES SALMONELLA TYPHIMURIUM, Strain/Indicator: TA98, Metabolic Activation: RAT, LIVER, S-9, AROCLOR 1254 (10%), Method: PREINCUBATION",inactive; negative
same,mutagenic call,"Test System: AMES SALMONELLA TYPHIMURIUM, Strain/Indicator: TA100, Metabolic Activation: HAMSTER, LIVER, S-9, AROCLOR 1254 (10%), Method: PREINCUBATION",inactive; negative
same,mutagenic call,"Test System: AMES SALMONELLA TYPHIMURIUM, Strain/Indicator: TA100, Metabolic Activation: HAMSTER, LIVER, S-9, AROCLOR 1254 (30%), Method: PREINCUBATION",inactive; negative
same,mutagenic call,[2],inactive; negative
same,mutagenic call,"Test System: AMES SALMONELLA TYPHIMURIUM, Strain/Indicator: TA100, Metabolic Activation: RAT, LIVER, S-9, AROCLOR 1254 (10%), Method: PREINCUBATION",active; positive
same,mutagenic call,"Test System: AMES SALMONELLA TYPHIMURIUM, Strain/Indicator: TA100, Metabolic Activation: RAT, LIVER, S-9, AROCLOR 1254 (30%), Method: PREINCUBATION",inactive; negative
same,mutagenic call,"Test System: AMES SALMONELLA TYPHIMURIUM, Strain/Indicator: TA1535, Metabolic Activation: HAMSTER, LIVER, S-9, AROCLOR 1254 (10%), Method: PREINCUBATION",inactive; negative
same,mutagenic call,"Test System: AMES SALMONELLA TYPHIMURIUM, Strain/Indicator: TA1535, Metabolic Activation: NONE, Method: PREINCUBATION",inactive; negative
same,mutagenic call,"Test System: AMES SALMONELLA TYPHIMURIUM, Strain/Indicator: TA1535, Metabolic Activation: RAT, LIVER, S-9, AROCLOR 1254 (10%), Method: PREINCUBATION",inactive; negative
same,mutagenic call,"Test System: Ames Salmonella typhimurium, Strain/Indicator: TA100, Metabolic Activation: None, Method: Preincubation",inactive; negative
same,mutagenic call,"Test System: Ames Salmonella typhimurium, Strain/Indicator: TA100, Metabolic Activation: Rat, Liver, S9, Phenobarbital and 5,6-benzoflavone, Method: Preincubation",inactive; negative
same,mutagenic call,"Test System: Ames Salmonella typhimurium, Strain/Indicator: TA102, Metabolic Activation: None, Method: Preincubation",inactive; negative
same,mutagenic call,"Test System: Ames Salmonella typhimurium, Strain/Indicator: TA102, Metabolic Activation: Rat, Liver, S9, Phenobarbital and 5,6-benzoflavone, Method: Preincubation",inactive; negative
Cc1cc2cc3ccccc3cc2c2ccccc12,mutagenic call,"Test System: AMES SALMONELLA TYPHIMURIUM, Strain/Indicator: TA100, Metabolic Activation: RAT, INTACT HEPATOCYTES, AROCLOR 1254, Method: PREINCUBATION",active; positive
same,mutagenic call,"Test System: AMES SALMONELLA TYPHIMURIUM, Strain/Indicator: TA100, Metabolic Activation: RAT, NADPH-FORTIFIED HOMOGENIZED HEPATOCYTES, AROCLOR 1254, Method: PREINCUBATION",active; positive
same,mutagenic call,"Test System: AMES SALMONELLA TYPHIMURIUM, Strain/Indicator: TA100, Metabolic Activation: RAT, SONICATED HEPATOCYTES, AROCLOR 1254, Method: PREINCUBATION",active; positive
O=C(O)c1cn(C2CC2)c2c(Cl)c(N3C[C@@H]4CCCN[C@@H]4C3)c(F)cc2c1=O,mutagenic call,"Test System: CHINESE HAMSTER V-79, Strain/Indicator: V-79 (HGPRT)/6-THIOGUANINE, Metabolic Activation: NONE, Method: STANDARD PLATE",active; positive
same,mutagenic call,"Test System: CHINESE HAMSTER, Strain/Indicator: V-79(HPRT)/6-THIOGUANINE, Metabolic Activation: NONE, Method: SUSPENSION/PLATE",active; positive
CNC(=O)C(C)SCCSP(=O)(OC)OC (stereo not given),mutagenic call,"Test System: E. COLI, Strain/Indicator: WP2, Metabolic Activation: NONE, Method: STANDARD PLATE",active; positive
same,mutagenic call,"Test System: E. COLI, Strain/Indicator: WP2 UVRA, Metabolic Activation: NONE, Method: STANDARD PLATE",active; positive
O=Cc1cccc(Cl)c1Cl,mutagenic call,[1],inactive; negative
same,mutagenic call,"Test System: AMES SALMONELLA TYPHIMURIUM, Strain/Indicator: TA98, Metabolic Activation: RAT LIVER S-9, PCB, Method: PREINCUBATION",inactive; negative
same,mutagenic call,[2],inactive; negative
same,mutagenic call,"Test System: AMES SALMONELLA TYPHIMURIUM, Strain/Indicator: TA100, Metabolic Activation: RAT LIVER S-9, PCB, Method: PREINCUBATION",inactive; negative
same,mutagenic call,"Test System: AMES SALMONELLA TYPHIMURIUM, Strain/Indicator: TA104, Metabolic Activation: NONE, Method: PREINCUBATION",inactive; negative
same,mutagenic call,"Test System: AMES SALMONELLA TYPHIMURIUM, Strain/Indicator: TA104, Metabolic Activation: RAT LIVER S-9, PCB, Method: PREINCUBATION",inactive; negative
same,mutagenic call,"Test System: E.COLI, Strain/Indicator: WP2 UVRA, Metabolic Activation: NONE, Method: PREINCUBATION",inactive; negative
same,mutagenic call,"Test System: E.COLI, Strain/Indicator: WP2 UVRA, Metabolic Activation: RAT LIVER S-9, PCB, Method: PREINCUBATION",inactive; negative
